Measured values as given in article PMC9954146, “Anti-Leukaemic Activity of Rilpivirine Is Mediated by Aurora A Kinase Inhibition” (Cancers, 2023).
Like-named read-outs stand apart in the source and are kept apart here.

What was measured:
IRAK4(h) = biological target: T1, IRAK4(h) (Homo sapiens, UniProt Q9NWZ3); experiment: Kinase panel; format: biochemical; conditions: read-out: % Residual Activity
T1 construct: purchased Eurofins (KinaseProfiler)
Procedure: (§1) Kinome-wide selectivity of rilpivirine was measured using the kinase screening and profiling service of Eurofins Scientific (Le bois l’Evêque 86600. Celle-Lévescault, France) and Ki values were determined using radioisotope-based assays by Reaction Biology Corporation (Malvern, PA, USA). The experimental details of Eurofin Scientific and Reaction Biology services for relevant assays are available at https://www.eurofinsdiscoveryservices.com/services/in-Vitro-assays/kinases/kinase-profiler (accessed on 7 July 2021) and https://www.reactionbiology.com (accessed on 7 July 2021), respectively. Ki values were estimated from the corresponding IC50 values using the Cheng–Prusoff equation [21] and the Km (ATP) of individual kinase was used for IC50 determination.

STK39(h) = biological target: T2, STK39(h) (Homo sapiens, UniProt Q9UEW8); experiment: Kinase panel; format: biochemical; conditions: read-out: % Residual Activity
T2 construct: purchased Eurofins (KinaseProfiler)
Procedure: as §1

CaMKIIγ(h) = biological target: T3, CaMKIIγ(h) (Homo sapiens, UniProt Q13555); experiment: Kinase panel; format: biochemical; conditions: read-out: % Residual Activity
T3 construct: purchased Eurofins (KinaseProfiler)
Procedure: as §1

U-937 cells [1] = experiment: Resazurin cell viability assay; format: cell-based; conditions: Homo sapiens
Procedure: (§2) Cell viability was determined by a resazurin-based assay as described previously. Briefly, 5 × 10^3 cells/well were seeded into 96-well plates (Corning Inc., Corning, NY, USA) in 180 µL of RPMI 1640 medium and incubated overnight at 37 °C with 5% CO2. Next day, cells were treated with rilpivirine after serially diluted (1:2 dilution for final concentrations ranging from 0.625 µM to 40 µM) or DMSO (0.1%) for specified time periods (24, 48, or 72 h). At the end of the treatment period, 20 µL of resazurin (0.1 mg/mL in PBS) was added per well and incubated for further 4 h. Fluorescence intensities were recorded at 570 nm (excitation)/585 nm (emission) using an EnVision® multilabel plate reader (PerkinElmer, MA, USA). Drug concentrations required for cell viability reduction by 50% (GI50) compared with untreated (DMSO vehicle-treated only) control were determined by a non-linear regression model using GraphPad Prism software version 7.02 (La Jolla, CA, USA).

NB4 cells [2] = experiment: Resazurin cell viability assay; format: cell-based; conditions: Homo sapiens
Procedure: as §2

PIM1 = biological target: PIM1; set-up: method as in PMID 36297298; conditions: apparent Ki from IC50 and Km (ATP); cited from earlier work
U-937 cells [3] = experiment: Cell cycle analysis (PI, flow cytometry); format: cell-based, human; conditions: 20 μM, 24 h
Procedure: (§3) To determine the effect of rilpivirine on cell-cycle distribution a flow cytometry-based analysis was performed after staining the untreated and treated cells with propidium iodide (PI) solution [22]. Briefly, 6 × 10^4 cells/well were seeded in 3 mL of medium per well in 6-well plates. After overnight incubation at 37 °C in 5% CO2, the cells were incubated with the test compounds for specified time points. The medium-containing cells were then taken out from the wells and transferred to FACS tubes. Cells were then pelleted by centrifugation at 300 g for 5 min. Afterward, cells were fixed by using 70% (v/v) ice-cold ethanol for 15 min and then again pelleted by centrifugation (300 g for 5 min). Finally, the cells were incubated with 200 µL of PI staining solution (50 μg/mL PI, 0.1% sodium citrate, 0.1 mg/mL RNase A, and 0.1% Triton X-100) for 1.5 h at room temperature in the dark. After the incubation period, the cells were analysed using a CytoFLEX flow cytometer (Beckman Coulter Inc., Brea, CA, USA). CytExpert software version 2.1 was used for data analysis and graph preparation.

NB4 cells [4] = experiment: Cell cycle analysis (PI, flow cytometry); format: cell-based, human; conditions: 20 μM, 24 h
Procedure: as §3

KG1 cells = experiment: Cell cycle analysis (PI, flow cytometry); format: cell-based, human; conditions: 10 µM or 20 µM, 24 h
Procedure: as §3

HL-60 cells [5] = experiment: Cell cycle analysis (PI, flow cytometry); format: cell-based, human; conditions: for G2-M cells: 24 h
Procedure: as §3

K-562 cells = experiment: Cell cycle analysis (PI, flow cytometry); format: cell-based, human; conditions: 20 μM, 24 h
Procedure: as §3

NB4 cells [6] = experiment: Colony formation assay; format: cell-based, human; conditions: 2.5, 5, or 10 µM, 10 days
Procedure: (§4) For colony formation assay, 2 × 10^3 cells/well (in 6-well plates) were treated for 10 days with rilpivirine (2.5, 5, or 10 µM) or DMSO (0.1%) and incubated with 1.5 mL of cytokine-free H4230 medium ([…] Technologies, Inc., Vancouver, BC, Canada). After the incubation period, cells were stained with 300 µL/well of 3-(4,5-dimethylthiazol-2-yl)-2,5-diphenyltetrazolium bromide solution (0.5 mg/mL in PBS) (Sigma-Aldrich, St Louis, MO, USA) and incubated for 1 h. Colonies were then counted on an inverted microscope.

HL-60 cells [7] = experiment: Colony formation assay; format: cell-based, human; conditions: 2.5, 5, or 10 µM, 10 days
Procedure: as §4

[8] = Pharmacokinetic analysis in mice; format: in vivo, mouse
Procedure: A pharmacokinetic study was performed as described previously. The pharmacokinetics of rilpivirine was determined after administration of single 50 mg/kg oral (PO) and 2 mg/kg intravenous (IV) doses to male BALB/c hairy mice (n = 6 per route). Briefly, three blood samples were collected from both cheeks (left and right) and the heart of each mouse. A validated liquid chromatography-mass spectrometry/mass spectrometry (LC-MS/MS) technique was used to measure the drug concentrations in the plasma. Pharmacokinetic parameters were estimated using compartmental models (Phoenix, Certara, NJ, USA) and analysis was performed with WinNonlin 6.4 software (Princeton, NJ, USA).

HL-60 cells [9] = experiment: Resazurin cell viability assay; format: cell-based; conditions: Homo sapiens, read-out: GI50
Procedure: Cell viability was determined by a resazurin-based assay as described previously. […] At the end of the treatment period, 20 µL of resazurin (0.1 mg/mL in PBS) was added per well and incubated for further 4 h.

[10] = male, BALB/c hairy, mouse, plasma, IV, 2 mg/kg single dose
[11] = male, BALB/c hairy, mouse, plasma, PO, 50 mg/kg single dose

T3 sequence (Q13555 whole entry): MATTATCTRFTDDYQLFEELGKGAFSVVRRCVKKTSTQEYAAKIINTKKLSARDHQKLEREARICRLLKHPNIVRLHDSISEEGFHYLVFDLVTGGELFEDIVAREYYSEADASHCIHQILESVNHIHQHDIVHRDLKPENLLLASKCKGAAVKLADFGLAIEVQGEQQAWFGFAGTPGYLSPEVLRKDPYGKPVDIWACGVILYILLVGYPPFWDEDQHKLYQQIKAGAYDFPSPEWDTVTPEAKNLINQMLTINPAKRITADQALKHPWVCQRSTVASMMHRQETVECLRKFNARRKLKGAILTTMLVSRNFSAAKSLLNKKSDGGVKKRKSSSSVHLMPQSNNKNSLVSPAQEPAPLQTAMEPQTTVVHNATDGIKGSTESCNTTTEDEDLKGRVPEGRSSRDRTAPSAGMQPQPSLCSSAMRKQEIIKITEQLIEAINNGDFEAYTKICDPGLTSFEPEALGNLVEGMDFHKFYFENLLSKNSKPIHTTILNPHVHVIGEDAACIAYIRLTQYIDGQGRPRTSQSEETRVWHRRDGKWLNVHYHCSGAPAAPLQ
T1 sequence (Q9NWZ3 whole entry): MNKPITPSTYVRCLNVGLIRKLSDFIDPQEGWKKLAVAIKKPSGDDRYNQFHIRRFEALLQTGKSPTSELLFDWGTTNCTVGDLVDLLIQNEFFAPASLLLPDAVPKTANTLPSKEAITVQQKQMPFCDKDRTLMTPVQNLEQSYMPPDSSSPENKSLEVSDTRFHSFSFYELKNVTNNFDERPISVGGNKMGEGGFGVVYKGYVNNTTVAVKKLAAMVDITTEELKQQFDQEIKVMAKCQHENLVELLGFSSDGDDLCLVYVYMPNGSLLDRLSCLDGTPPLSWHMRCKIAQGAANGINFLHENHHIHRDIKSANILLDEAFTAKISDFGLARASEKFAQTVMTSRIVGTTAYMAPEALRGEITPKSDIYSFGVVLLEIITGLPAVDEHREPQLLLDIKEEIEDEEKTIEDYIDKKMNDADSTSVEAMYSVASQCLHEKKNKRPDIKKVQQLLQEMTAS

Cc1cc(/C=C/C#N)cc(C)c1Nc1ccnc(Nc2ccc(C#N)cc2)n1 [rilpivirine, (E)-4-((4-((4-(2-cyanoethenyl)-2,6-dimethylphenyl)amino)pyrimidin-2-yl)amino)benzonitrile]
remaining activity at 1 µM (IRAK4(h)): 80% | remaining activity at 1 µM (STK39(h)): 95% | remaining activity at 1 µM (CaMKIIγ(h)): 58% | GI50 (U-937 cells [1]; U-937, 24 h): 12.1 ± 2.97 µM | GI50 (U-937 cells [1]; U-937, 48 h): 5.77 ± 1 µM | GI50 (U-937 cells [1]; U-937, 72 h): 4.79 ± 0.17 µM | GI50 (NB4 cells [2]; NB-4, 24 h): 8.94 ± 1.02 µM | GI50 (NB4 cells [2]; NB-4, 48 h): 6.54 ± 0.83 µM | GI50 (NB4 cells [2]; NB-4, 72 h): 4.6 ± 0.35 µM | Ki (PIM1): 0.52 µM | G2-M cells (U-937 cells [3]): 36.61% | G2-M cells (NB4 cells [4]): 55.25% | cell-cycle arrest (KG1 cells): induced G2/M cell-cycle arrest | G2-M cells (HL-60 cells [5]; 5 μM): 31.15% | G2-M cells (HL-60 cells [5]; 10 µM): 40.70% | time of maximum accumulation in the G2/M phase (HL-60 cells [5]; 10 µM, time course): 16 h | G2-M cells (HL-60 cells [5]; 20 μM): 46.32% | G2-M cells (K-562 cells): 46.23% | clonogenic growth (NB4 cells [6]): significantly decreased | clonogenic growth (HL-60 cells [7]): significantly decreased | Cmax ([8]; IV, 2 mg/kg single dose, 2 mg/kg): > 20 µM | Cmax ([8]; PO, 50 mg/kg single dose, 50 mg/kg): > 20 µM | AUC(0-t) [8, 10]: 20 µM·h | Tmax [8, 10]: 0.033 h | half-life [8, 10]: 1.3 h | AUC(0-t) [8, 11]: 247 µM·h | Tmax [8, 11]: 1.5 h | bioavailability [8, 11]: 49.1% | half-life [8, 11]: 4.91 h | Cmax ([8]; male, BALB/c hairy, mouse, plasma, iv, 2 mg/kg, 2 mg/kg single dose): 22.4 µM | Cmax ([8]; male, BALB/c hairy, mouse, plasma, po, 50 mg/kg, 50 mg/kg single dose): 33.3 µM | GI50 (HL-60 cells [9]; HL-60, 24 h): 9.16 ± 1.05 µM | GI50 (HL-60 cells [9]; HL-60, 48 h): 6.26 ± 0.15 µM | GI50 (HL-60 cells [9]; HL-60, 72 h): 4.12 ± 0.18 µM
